{"source": "patent US8080577B2", "about": "“Diindolylmethane formulations for the treatment of leiomyomas” (Bioresponse, L.L.C., priority 2004, dated 2011)", "type_in_all_cases": "in vivo, human", "key": {"uterine leiomyomas": {"system": "uterine leiomyomas", "test": "Oral absorption-enhanced DIM in women with uterine leiomyomas, tumor volume by serial pelvic ultrasound", "details": "for Post-DIM Treatment Tumor Volume: oral absorption-enhanced DIM", "procedure": "Expected results are clinical improvement in symptoms and reduction of leiomyoma size documented in serial sonograms. […] Women with uterine leiomyomas have been selected based on the findings of abnormal uterine sonograms showing measurable leiomyoma documented on more than one occasion. Three subjects were proceeding to provide a baseline 12-hour urine collection and began to take absorbable DIM 150 to 450 mg [37.5-112 mg actual DIM] twice daily for 3-6 months. Two women have completed participation in a preliminary study, completing 2 and 6 month treatment periods. Subject A was a multiparous person with regular menstrual periods, taking thyroid hormone replacement to correct primary hypothyroidism and using no other medications. Subject B was a person taking no medications with regular periods. After informed consent, a pretreatment ultrasound was obtained for each subject. Each subject provided a 12 or 24 hour urine specimen which was frozen. Subject A began taking 2 capsules twice daily of absorption-enhanced DIM (BioResponse, LLC, Boulder Colo.) providing DIM at […]. Subject B took 3 capsules twice daily of absorption-enhanced DIM (BioResponse, LLC, Boulder Colo.) providing DIM at […]. After 2 months of treatment, Subject A was re-evaluated by the same ultrasound technician using the same equipment and at the same phase of their menstrual cycle. A post treatment urine was also obtained, collected at the same point in the menstrual cycle as the baseline urine sample. Similarly, Subject B was re-evaluated after 6 months of treatment using absorption-enhanced DIM (BioResponse-DIM). They took a higher twice daily dose providing […]. Their re-evaluation included pelvic ultrasonography following a series of 3 pre-treatment pelvic ultrasound evaluations all performed with the same equipment. Like Subject A, Subject B provided a before and after DIM treatment urine sample. The pelvic ultrasound data were analysed using a mathematical formula to calculate the pre-treatment and post-treatment volume of individual leiomyoma based on the widest diameter and the diameter perpendicular to this measured in centimeters (cm). A calculation of individual tumor volume was performed, treating each tumor as an ovoid mass, using the formula: V=4/3π(H/2)^2(L/2), where V=volume in cubic centimeters (cm^3), H=tumor height in centimeters (cm), and L=tumor length in centimeters (cm). This method provided individual tumor volumes in cubic centimeters (cm^3)."}, "[1]": {"system": "estrogen metabolites in urine", "test": "GCMS assay of urinary estrogen metabolites before and after DIM treatment", "details": "after vs before DIM", "procedure": "After informed consent, a pretreatment ultrasound was obtained for each subject. Each subject provided a 12 or 24 hour urine specimen which was frozen. Subject A began taking 2 capsules twice daily of absorption-enhanced DIM (BioResponse, LLC, Boulder Colo.) providing DIM at […]. Subject B took 3 capsules twice daily of absorption-enhanced DIM (BioResponse, LLC, Boulder Colo.) providing DIM at […]. After 2 months of treatment, Subject A was re-evaluated by the same ultrasound technician using the same equipment and at the same phase of their menstrual cycle. A post treatment urine was also obtained, collected at the same point in the menstrual cycle as the baseline urine sample. Similarly, Subject B was re-evaluated after 6 months of treatment using absorption-enhanced DIM (BioResponse-DIM). They took a higher twice daily dose providing […]. Their re-evaluation included pelvic ultrasonography following a series of 3 pre-treatment pelvic ultrasound evaluations all performed with the same equipment. Like Subject A, Subject B provided a before and after DIM treatment urine sample.\nThe urine samples were tested at the Bradlow/Sepkovic Laboratory, Hackensack University Medical Center, Hackensack, N.J. The technique utilized was an established gas chromatography-mass spectrometry (GCMS) assay for estradiol (E2), estrone (E1), 2-hydroxy estrone (2OH-E1), 4-hydroxy estrone (4OH-E1), 16-hydroxy estrone (16OH-E1), and estriol (E3) in urine (Michnovicz et al., 1997, J Natl Cancer Inst. 89(10):718-23). […] Laboratory analysis is expected to show an increase in 2-hydroxy estrone, and a decrease in 16-hydroxy estrone, as measured in pre-treatment as compared to post-treatment urine samples. […] Results of before and after DIM treatment are presented in Table 8, showing the metabolites of interest as a percent of the total estrogen metabolites measured and as ratios of the amounts of 2OH-E1 to 16OH-E1 (2OH-E1/16OH-E1) determined for each sample. […]"}, "uterine leiomyoma": {"system": "uterine leiomyoma", "test": "Clinical case: oral absorption-enhanced DIM in a person with symptomatic uterine leiomyoma", "details": "after two months", "procedure": "A person was symptomatic from uterine leiomyoma, experiencing painful menses with excessive bleeding, frequency of urination, and inability to exercise due to tiredness. […] A blood test indicated mild anemia. […] The patient initiated therapy with capsules of DIM, formulated for enhanced absorption as described in Example 1. A dose of 120 mg of DIM formulation, given three times per day, delivering 30 mg of actual DIM per dose, was used."}, "[2]": {"system": "estrogen metabolites in urine", "test": "GCMS assay of urinary estrogen metabolites before and after DIM treatment"}, "[3]": {"details": "30 mg actual DIM three times per day"}, "[4]": {"details": "Subject A, 200 mg/day DIM, taken for 2 months"}, "[5]": {"details": "Subject B, 300 mg/day DIM, taken for 6 months"}}, "note": "“Also recorded” adds a separate entry of the source.", "data": [{"smiles": "c1ccc2c(Cc3c[nH]c4ccccc34)c[nH]c2c1", "note": "[DIM, 3,3′-diindolylmethane]", "values": [{"measurement": "average percent reduction in tumor volume", "setting": "uterine leiomyomas; Subject A, 2 month treatment", "value": 33.5, "unit": "%"}, {"measurement": "Percent Decrease in Tumor Volume", "setting": "uterine leiomyomas; Subject A, Tumor 1, oral DIM 200 mg/day, 2 months", "value": 83.11, "unit": "%"}, {"measurement": "Post-DIM Treatment Tumor Volume", "setting": "uterine leiomyomas; Subject A, Tumor 1, 200 mg/day DIM, 2 months", "value": 3.783, "unit": "cm^3"}, {"measurement": "Percent Decrease in Tumor Volume", "setting": "uterine leiomyomas; Subject A, Tumor 2, oral DIM 200 mg/day, 2 months", "value": 2.06, "unit": "%"}, {"measurement": "Post-DIM Treatment Tumor Volume", "setting": "uterine leiomyomas; Subject A, Tumor 2, 200 mg/day DIM, 2 months", "value": 114.4901, "unit": "cm^3"}, {"measurement": "Percent Decrease in Tumor Volume", "setting": "uterine leiomyomas; Subject A, Tumor 3, oral DIM 200 mg/day, 2 months", "value": 15.32, "unit": "%"}, {"measurement": "Post-DIM Treatment Tumor Volume", "setting": "uterine leiomyomas; Subject A, Tumor 3, 200 mg/day DIM, 2 months", "value": 53.2, "unit": "cm^3"}, {"measurement": "average reduction in tumor volume", "setting": "uterine leiomyomas; Subject B, 6 month treatment", "value": 78.6, "unit": "%"}, {"measurement": "Percent Decrease in Tumor Volume", "setting": "uterine leiomyomas; Subject B, Tumor 1, oral DIM 300 mg/day, 6 months", "value": 71.9605, "unit": "%"}, {"measurement": "Post-DIM Treatment Tumor Volume", "setting": "uterine leiomyomas; Subject B, Tumor 1, 300 mg/day DIM, 6 months", "value": 5.575, "unit": "cm^3"}, {"measurement": "Percent Decrease in Tumor Volume", "setting": "uterine leiomyomas; Subject B, Tumor 2, oral DIM 300 mg/day, 6 months", "value": 47.75, "unit": "%"}, {"measurement": "Post-DIM Treatment Tumor Volume", "setting": "uterine leiomyomas; Subject B, Tumor 2, 300 mg/day DIM, 6 months", "value": 1.877, "unit": "cm^3"}, {"measurement": "Percent Decrease in Tumor Volume", "setting": "uterine leiomyomas; Subject B, Tumor 3, oral DIM 300 mg/day, 6 months", "value": 38.51, "unit": "%"}, {"measurement": "Post-DIM Treatment Tumor Volume", "setting": "uterine leiomyomas; Subject B, Tumor 3, 300 mg/day DIM, 6 months", "value": 6.094, "unit": "cm^3"}, {"measurement": "Percent Decrease in Tumor Volume", "setting": "uterine leiomyomas; Subject B, Tumor 4, oral DIM 300 mg/day, 6 months", "value": 53.06, "unit": "%"}, {"measurement": "Post-DIM Treatment Tumor Volume", "setting": "uterine leiomyomas; Subject B, Tumor 4, 300 mg/day DIM, 6 months", "value": 0.8849, "unit": "cm^3"}, {"measurement": "Percent Decrease in Tumor Volume", "setting": "uterine leiomyomas; Subject B, Tumor 5, oral DIM 300 mg/day, 6 months", "value": 62.41, "unit": "%"}, {"measurement": "Post-DIM Treatment Tumor Volume", "setting": "uterine leiomyomas; Subject B, Tumor 5, 300 mg/day DIM, 6 months", "value": 0.7964, "unit": "cm^3"}, {"measurement": "leiomyoma size by serial pelvic ultrasound", "setting": "uterine leiomyomas; preliminary treatment of women with oral DIM", "value": "meaningful reduction of leiomyoma size; also recorded: consistent reduction of intra-uterine leiomyoma size"}, {"measurement": "side effects associated with reduction in leiomyoma volume", "setting": "uterine leiomyomas; women treated with oral DIM, 2 and 6 months", "value": "not associated with amenorrhea, hypo-estrogenemia, hot flashes, or other reported side effects"}, {"measurement": "change in 16OH-E1", "setting": "[1]; Subject A", "value": "treatment related reduction"}, {"measurement": "change in 4OH-E1", "setting": "[1]; Subject B, treated at a higher dose", "value": "treatment related reduction"}, {"measurement": "change in 2OH-E1 and the 2OH-E1/16OH-E1 ratio", "setting": "[1]; both Subjects", "value": "large treatment related increases"}, {"measurement": "repeat abdominal exam", "setting": "uterine leiomyoma; [3]", "value": "no visible or palpable pelvic masses"}, {"measurement": "repeat pelvic exam", "setting": "uterine leiomyoma; [3]", "value": "normal appearing uterine cervix and a palpable uterus of much reduced size"}, {"measurement": "myoma-related symptoms described by the patient", "setting": "uterine leiomyoma; 120 mg DIM formulation (30 mg actual DIM) three times per day", "value": "normal menstrual flow with normal levels of discomfort and improved energy"}, {"measurement": "2OH-E1/16OH-E1 ratio, After DIM", "setting": "[2]; [4]", "value": 1.7}, {"measurement": "2OH-Estrone (2OH-E1), percent of total estrogen metabolites measured, After DIM", "setting": "[2]; [4]", "value": 8.3, "unit": "%"}, {"measurement": "4OH-Estrone (4OH-E1), percent of total estrogen metabolites measured, After DIM", "setting": "[2]; [4]", "value": 0.7, "unit": "%"}, {"measurement": "16OH-Estrone (16OH-E1), percent of total estrogen metabolites measured, After DIM", "setting": "[2]; [4]", "value": 4.9, "unit": "%"}, {"measurement": "2OH-E1/16OH-E1 ratio, After DIM", "setting": "[2]; [5]", "value": 9.5}, {"measurement": "2OH-Estrone (2OH-E1), percent of total estrogen metabolites measured, After DIM", "setting": "[2]; [5]", "value": 35, "unit": "%"}, {"measurement": "4OH-Estrone (4OH-E1), percent of total estrogen metabolites measured, After DIM", "setting": "[2]; [5]", "value": 1.7, "unit": "%"}]}]}
